Blank lines part the entries; values can stand above or below the molecule they belong to.
How the values were obtained:
inguinal fat pad = details: 0.2 ml s.c. once into inguinal fat pad, 8 days post-injection
paw of the rats = experiment: Rat paw edema; assay type: in vivo, Sprague Dawley rats; details: for degree of edema in words: 2 hours after administration, rat paw; for degree of edema, 1 hour after administration / degree of edema, 2 hours after administration / degree of edema, Immediately after administration: 0.1 ml into rat paw
Protocol: (§1) To evaluate the degree of edema, each test compositions described above were injected into the paw of the rats. Specifically, male Sprague Dawley rats (6 weeks old) were purchased and used after one week of adaptation. The rats (body weight: 170˜200 g) were randomly selected and the thickness of the rat paw were measured with a caliper before the administration of the test compositions. In order to observe the edema, 0.1 ml of PBS and the various test compositions were administered to the paws of the rats. Measurements of the […] were performed by a caliper immediately before the injection, immediately after the injection, and 1 or 2 hours after the injection. In addition, when the thickness was measured, the skin lesion of the injection site was observed by photographing the sole of the paw (using a 4×4 cm scale).
The degree of edema was evaluated as 0 to 4 grades.

sole of the rat paws = experiment: Measurement of skin lesion (erythema) on rat paw; assay type: in vivo, Sprague Dawley rats;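 note: grades − to ++++ mean no to extremely severe erythema versus before injection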
Protocol: as §1
The grades of skin lesion were evaluated as 0 to 4 grades.

[1] = tested on: tissues of the injected area (rat paw); experiment: H&E staining histological test (inflammation) of injected rat paw; assay type: in vivo, Sprague Dawley rats
Protocol: The tissues of the injected area were dissected, fixed with 10% formalin, and then the specimen was prepared and images were captured using an optical microscope. The degree of inflammation was evaluated as follows.

3T3-L1 adipocytes = experiment: Adipocyte (3T3-L1) reducing effect, MTT assay; assay type: cell-based; details: 24 to 96 hours, various concentrations
Protocol: Tests were performed to compare the adipocyte reducing activity of the PPC single composition and the PPC composition solubilized with bile acids. Differentiated 3T3L-1 adipocyte lines were used to observe adipocyte reduction activity, and cell viability was monitored by MTT assay. […] Materials and methods employed in the following experiments are described below. In the following, % of the composition refers to % (w/v).
The specific test methods are as follows. […] The cells were washed twice with PBS, treated with MTT reagent (50 μl) and left at 37° C. for 2 hours. After removing the supernatant, MTT formazan crystals were dissolved in DMSO and the absorbance was measured at 540 nm using a microplate reader.
The 3T3-L1 adipocyte (ATCC) was cultured in Dulbecco's modified eagle medium (DMEM) (Invitrogen) supplemented with 10% fetal bovine serum, 100 units/ml penicillin and 100 μg/ml streptomycin under the condition of 5% CO2 and 37° C. […] Subsequently, the medium was replaced with DMEM medium containing 1 μg/ml insulin (Sigma), and the culture medium was maintained and changed every 2 to 3 days until the degree of differentiation reaches maximum. If it took more than 7 days, the cells were kept in normal DMEM culture medium until starting the tests. […] After the cells were incubated for 3 hours under the condition of 37° C. and 5% CO2, the MTT solution was removed.

[2] = Formulation stability of PPC injectable preparations: property, transparency, particle size, pH
[3] = bile acid single composition 1.0% (w/v)
[4] = bile acid single composition 2.5% (w/v)
[5] = bile acid single composition 5.0% (w/v)
[6] = bile acid single composition 7.5% (w/v)

SMILES: CC(C)NCC(O)c1ccc(O)c(O)c1 (stereo not drawn) [Isuprel]
histological change of adipocytes in fat tissue (inguinal fat pad): size of the adipocytes was reduced

degree of edema in words (paw of the rats; listed as TUCA 1.0%): Mild | degree of edema in words (paw of the rats; listed as TUCA 2.5%): Mild | degree of edema in words (paw of the rats; listed as TUDCA 1.0%): mild | degree of edema in words (paw of the rats; listed as TUDCA 2.5%): mild | degree of edema in words (paw of the rats; listed as TUDCA 5.0%): moderate | degree of edema in words (paw of the rats; listed as TUDCA 7.5%): Moderate | grade of skin lesion (erythema), 1 hour after administration (sole of the rat paws; [3]): − | grade of skin lesion (erythema), 2 hours after administration (sole of the rat paws; [3]): − | grade of skin lesion (erythema), Immediately after administration (sole of the rat paws; [3]): − | grade of skin lesion (erythema), 1 hour after administration (sole of the rat paws; [4]): − | grade of skin lesion (erythema), 2 hours after administration (sole of the rat paws; [4]): − | grade of skin lesion (erythema), Immediately after administration (sole of the rat paws; [4]): − | grade of skin lesion (erythema), 1 hour after administration (sole of the rat paws; [5]): − | grade of skin lesion (erythema), 2 hours after administration (sole of the rat paws; [5]): − | grade of skin lesion (erythema), Immediately after administration (sole of the rat paws; [5]): − | grade of skin lesion (erythema), 1 hour after administration (sole of the rat paws; [6]): − | grade of skin lesion (erythema), 2 hours after administration (sole of the rat paws; [6]): − | grade of skin lesion (erythema), Immediately after administration (sole of the rat paws; [6]): − | Inflammation (H&E), BA % (w/v) 1.0 ([1]; bile acid single composition 1.0% (w/v), injected rat paw): − | Inflammation (H&E), BA % (w/v) 2.5 ([1]; bile acid single composition 2.5% (w/v), injected rat paw): − | Inflammation (H&E), BA % (w/v) 5.0 ([1]; bile acid single composition 5.0% (w/v), injected rat paw): − | Inflammation (H&E), BA % (w/v) 7.5 ([1]; bile acid single composition 7.5% (w/v), injected rat paw): + | degree of inflammation (H&E) in words ([1]; rats sacrificed at 3 hours, injected paw): Mild | bile acid/PPC molar ratio below which a substantially stable formulation did not occur ([2]; PPC 5.0%): less than 1.29 | bile acid concentration at which stable injectable preparations can be made ([2]; based on PPC 5.0%): ≥ 4.0%
SMILES: C[C@H](CCC(=O)NCCS(=O)(=O)O)[C@H]1CC[C@H]2[C@@H]3[C@@H](O)C[C@@H]4C[C@H](O)CC[C@]4(C)[C@H]3CC[C@]12C [TUDCA, 2-[[(4R)-4-[(3R,5S,7S,8R,9S,10S,13R,14S,17R)-3,7-dihydroxy-10,13-dimethyl-2,3,4,5,6,7,8,9,11,12,14,15,16,17-tetradecahydro-1H-cyclopenta[a]phenanthren-17-yl]pentanoyl]amino]ethanesulfonic acid]
degree of edema, 1 hour after administration (paw of the rats; [3]): + (mild edema [+, (the degree of swelling was 1-20% compared to before the injection)]) | degree of edema, 2 hours after administration (paw of the rats; [3]): + (mild edema [+, (the degree of swelling was 1-20% compared to before the injection)]) | degree of edema, Immediately after administration (paw of the rats; [3]): ++ (moderate edema [++, (the degree of swelling was 20-40% compared to before the injection)]) | degree of edema, 1 hour after administration (paw of the rats; [4]): + (mild edema [+, (the degree of swelling was 1-20% compared to before the injection)]) | degree of edema, 2 hours after administration (paw of the rats; [4]): + (mild edema [+, (the degree of swelling was 1-20% compared to before the injection)]) | degree of edema, Immediately after administration (paw of the rats; [4]): ++ (moderate edema [++, (the degree of swelling was 20-40% compared to before the injection)]) | degree of edema, 1 hour after administration (paw of the rats; [5]): + (mild edema [+, (the degree of swelling was 1-20% compared to before the injection)]) | degree of edema, 2 hours after administration (paw of the rats; [5]): ++ (moderate edema [++, (the degree of swelling was 20-40% compared to before the injection)]) | degree of edema, Immediately after administration (paw of the rats; [5]): ++ (moderate edema [++, (the degree of swelling was 20-40% compared to before the injection)]) | degree of edema, 1 hour after administration (paw of the rats; [6]): ++ (moderate edema [++, (the degree of swelling was 20-40% compared to before the injection)]) | degree of edema, 2 hours after administration (paw of the rats; [6]): ++ (moderate edema [++, (the degree of swelling was 20-40% compared to before the injection)]) | degree of edema, Immediately after administration (paw of the rats; [6]): ++ (moderate edema [++, (the degree of swelling was 20-40% compared to before the injection)]) | adipocyte viability / adipocyte-reducing activity (3T3-L1 adipocytes): inhibits the adipocyte apoptosis and degradation
